Patent publication US20070128217A1 (priority 2003, published 2007)

Experiments:
[1] = system: antibodies in sera from SARS patients (sera 1a, 1b, 2, 6, 37, 62, London, SARS-yellow, SARS-green); assay type: binding, human; parameters: Binding of serum 6 to linear peptides of protein X1 of SARS-CoV Urbani / Binding of serum 37 to linear peptides of protein X1 of SARS-CoV Urbani / Binding of serum 6 to looped/cyclic peptide (PEPSCAN-ELISA) / Binding of serum 37 to looped/cyclic peptide (PEPSCAN-ELISA) / Binding of serum 37 to looped/cyclic peptides of protein X1 of SARS-CoV Urbani / Binding of serum 6 to linear peptides of protein X2 / Binding of serum 37 to linear peptides of protein X2 / Binding of serum 37 to looped/cyclic peptides of protein X2 of SARS-CoV Urbani / Binding of serum 6 to linear peptides of protein M of SARS-CoV Urbani / Binding of serum 37 to linear peptides of protein M of SARS-CoV Urbani / Binding of serum 6 to looped/cyclic peptides of protein M of SARS-CoV Urbani / Binding of serum 37 to looped/cyclic peptides of protein M of SARS-CoV Urbani / Binding of serum 6 to linear peptides of protein X3 of SARS-CoV Urbani / Binding of serum 37 to linear peptides of protein X3 of SARS-CoV Urbani / Binding of serum 37 to looped/cyclic peptides of protein X3 of SARS-CoV Urbani / Binding of serum 6 to linear peptides of protein X4 of SARS-CoV Urbani / Binding of serum 37 to linear peptides of protein X4 of SARS-CoV Urbani / Binding of serum 37 to looped/cyclic peptides of protein X4 of SARS-CoV Urbani / Binding of serum 6 to linear peptides of protein X5 of SARS-CoV Urbani / Binding of serum 37 to linear peptides of protein X5 of SARS-CoV Urbani / Binding of serum 37 to looped/cyclic peptides of protein X5 of SARS-CoV Urbani / Binding of serum 6 to linear peptides of protein N of SARS-CoV Urbani / Binding of serum 37 to linear peptides of protein N of SARS-CoV Urbani / Binding of serum 6 to linear peptide (PEPSCAN-ELISA) / Binding of serum 1a to looped/cyclic peptides of protein N of SARS-CoV Urbani / Binding of serum 1b to looped/cyclic peptides of protein N of SARS-CoV Urbani / Binding of serum 2 to looped/cyclic peptides of protein N of SARS-CoV Urbani / Binding of serum 6 to looped/cyclic peptides of protein N of SARS-CoV Urbani / Binding of serum 37 to looped/cyclic peptides of protein N of SARS-CoV Urbani / Binding of serum 62 to looped/cyclic peptides of protein N of SARS-CoV Urbani / Binding of serum London to looped/cyclic peptides of protein N of SARS-CoV Urbani / Binding of serum SARS-green to looped/cyclic peptides of protein N of SARS-CoV Urbani: unit not given here
[2] = system: control sera (pooled serum of ten healthy LUMC hospital workers; commercial negative donor pooled serum from the Dutch bloodbank); assay type: binding, human; parameters: Binding of Control serum LUMC to linear peptides / Binding of Control serum Blood-bank to linear peptides / Binding of Control serum LUMC to looped peptides / Binding of Control Serum Blood-Bank to Looped peptides / Binding of Control serum LUMC to linear peptides of the protein M of SARS-CoV Urbani / Binding of Control serum Blood-bank to linear peptides of the protein M of SARS-CoV Urbani / Binding of Control serum LUMC to looped peptides of the protein M of SARS-CoV Urbani / Binding of Control Serum Blood-Bank to Looped peptides of the protein M of SARS-CoV Urbani: unit not given here
[3] = system: rabbit serum obtained by immunizing a rabbit with the SARS-CoV strain Frankfurt 1; assay type: binding; parameters: Binding of a rabbit serum to linear peptides / Binding of a rabbit serum to looped peptides / Rabbit serum linear peptides / Rabbit serum looped peptides / Binding of a rabbit serum to linear peptides of protein N of SARS-CoV Urbani (Rabbit serum linear peptides) / Binding of a rabbit serum to looped/cyclic peptides of protein N of SARS-CoV Urbani (Rabbit serum looped peptides): unit not given here
[4] = system: recombinant human anti-SARS-CoV antibody 03-018; assay type: binding; parameters: Binding of antibody 03-018 to linear peptides of the N protein of SARS-CoV Urbani / Binding of antibody 03-018 to looped/cyclic peptides of the N protein of SARS-CoV Urbani: unit not given here

Sequence	Binding of serum 1a to looped/cyclic peptides of protein N of SARS-CoV Urbani [1]	Binding of serum 1b to looped/cyclic peptides of protein N of SARS-CoV Urbani [1]	Binding of serum 2 to looped/cyclic peptides of protein N of SARS-CoV Urbani [1]	Binding of serum 6 to looped/cyclic peptides of protein N of SARS-CoV Urbani [1]	Binding of serum 37 to looped/cyclic peptides of protein N of SARS-CoV Urbani [1]	Binding of serum 62 to looped/cyclic peptides of protein N of SARS-CoV Urbani [1]	Binding of serum London to looped/cyclic peptides of protein N of SARS-CoV Urbani [1]	Binding of serum SARS-green to looped/cyclic peptides of protein N of SARS-CoV Urbani [1]	Binding of serum SARS-yellow to looped/cyclic peptides of protein N of SARS-CoV Urbani [1]	Binding of Control Serum Blood-Bank to Looped peptides [2]	Binding of Control serum Blood-bank to linear peptides [2]	Binding of Control serum LUMC to linear peptides [2]	Binding of Control serum LUMC to looped peptides [2]	Binding of a rabbit serum to linear peptides of protein N of SARS-CoV Urbani (Rabbit serum linear peptides) [3]	Binding of a rabbit serum to looped/cyclic peptides of protein N of SARS-CoV Urbani (Rabbit serum looped peptides) [3]	Binding of antibody 03-018 to linear peptides of the N protein of SARS-CoV Urbani [4]	Binding of antibody 03-018 to looped/cyclic peptides of the N protein of SARS-CoV Urbani [4]	Binding of serum 1a to linear peptides of protein N of SARS-CoV Urbani [1]	Binding of serum 1b to linear peptides of protein N of SARS-CoV Urbani [1]	Binding of serum 2 to linear peptides of protein N of SARS-CoV Urbani [1]	other results
GSRGGSQASSRSSSR	0.6	0.8	0.7	0.5	0.9	0.7	0.7	1.2	1.6	1.1	0.7	0.7	0.7	0.3	0.6	0.1	0.2				Binding of serum 1a to linear peptide (PEPSCAN-ELISA) [1]: 0.3; Binding of serum 1b to linear peptide (PEPSCAN-ELISA) [1]: 0.1; Binding of serum 2 to linear peptide (PEPSCAN-ELISA) [1]: 0.3; Binding of serum 6 to linear peptide (PEPSCAN-ELISA) [1]: 0.4; Binding of serum 37 to linear peptide (PEPSCAN-ELISA) [1]: 0.7; Binding of serum 62 to linear peptide (PEPSCAN-ELISA) [1]: 0.8; Binding of serum London to linear peptide (PEPSCAN-ELISA) [1]: 0.5; Binding of serum SARS-green to linear peptide (PEPSCAN-ELISA) [1]: 0.2; Binding of serum SARS-yellow to linear peptide (PEPSCAN-ELISA) [1]: 0.8
GTDYKHWPQIAQFAP	0.5	0.3	0.5	0.3	0.7	0.7	0.5		0.7					0.2	0.5	0.1	0.2	0.3	0.1	0.2	Binding of serum 6 to linear peptides of protein N of SARS-CoV Urbani [1]: 0.2; Binding of serum 37 to linear peptides of protein N of SARS-CoV Urbani [1]: 0.7; Binding of serum 62 to linear peptides of protein N of SARS-CoV Urbani [1]: 0.8; Binding of serum London to linear peptides of protein N of SARS-CoV Urbani [1]: 0.6; Binding of serum SARS-green to linear peptides of protein N of SARS-CoV Urbani [1]: 0.6; Binding of serum SARS-yellow to linear peptides of protein N of SARS-CoV Urbani [1]: 0.7; Control Serum Blood-Bank Looped peptides [2]: 0.8; Control serum Blood-bank linear peptides [2]: 0.8; Control serum LUMC linear peptides [2]: 0.6; Control serum LUMC looped peptides [2]: 0.7
GTGPEASLPYGANKE	0.2	0.2	0.2	0.1	0.4	0.3	0.3	0.2	0.2	0.4	0.7	0.8	0.4	0.1	0.3	0.1	0.2	0.3	0.1	0.3	Binding of serum 6 to linear peptides of protein N of SARS-CoV Urbani [1]: 0.2; Binding of serum 37 to linear peptides of protein N of SARS-CoV Urbani [1]: 0.9; Binding of serum 62 to linear peptides of protein N of SARS-CoV Urbani [1]: 0.9; Binding of serum London to linear peptides of protein N of SARS-CoV Urbani [1]: 0.7; Binding of serum SARS-green to linear peptides of protein N of SARS-CoV Urbani [1]: 0.7; Binding of serum SARS-yellow to linear peptides of protein N of SARS-CoV Urbani [1]: 0.6
